# Reference: patent US20170165282A1, “USE OF BETA-NICOTINAMIDE MONONUCLEOTIDE IN PREPARATION OF DRUGS FOR PREVENTING AND TREATING ARTERIOSCLEROSIS AND CARDIO-CEREBROVASCULAR DISEASES, AND DRUGS CONTAINING THE SAME” (BONTAC BIO-ENGINEERING (SHENZHEN) CO., LTD, priority 2015, published 2017)
# How the values were obtained:
# [1] = tested on: arteriosclerosis (lesion of the aorta) in guinea pigs fed on high-fat diet; assay: Guinea pig high-fat diet arteriosclerosis model, lesion area of aorta (Sudan IV staining); type: in vivo
# Procedure: 80 SPF healthy guinea pigs (female:male 1:1) having a body weight of 250-300 g, were assigned to 8 groups at random, each group having 10 animals. The groups include:
# (1) a normal control group, fed on basal diet, and allowed to free access to water during experiment;
# (2) a high fat control group, fed on high-fat diet, and allowed to free access to water during experiment;
# (3) a high fat prevention group, fed on high-fat diet, dosed with 10 mg NMN/kg body weight by gavage every day, and allowed to free access to water during experiment;
# (4) a low-dose NMN group, fed on high-fat diet, dosed with 0.1 mg NMN/kg body weight by gavage every day from week 7, and allowed to free access to water during experiment;
# (5) a medium-dose NMN group, fed on high-fat diet, dosed with 10 mg NMN/kg body weight by gavage every day from week 7, and allowed to free access to water during experiment;
# (6) a high-dose NMN group, fed on high-fat diet, dosed with 20 mg NMN/kg body weight by gavage every day from week 7, and allowed to free access to water during experiment;
# (7) NMN+NR gavage group: fed on high-fat diet, dosed with 10 mg NMN/kg body weight and 1 mg NR/kg body weight by gavage every day from week 7, and allowed to free access to water during experiment.
# (8) NMN+NR injection group: fed on high-fat diet, dosed with 10 mg NMN/kg body weight and 5 mg NR/kg body weight by intramuscular injection every day from week 7, and allowed to free access to water during experiment.
# The formulation of the high-fat diet includes 83% basal diet, 2% cholesterol, and 15% lard oil.
# At the end of week 10, all the experimental animals was fasted (allowed to access to water) for 12 hrs and then sacrificed. The aorta was isolated, dissected longitudinally along the midline of the anterior wall, and stained with Sudan IV. […] The lesion area pathologically measured and the total endangium area were quantified, and the degree of arteriosclerosis was expressed by percentages of the lesion area relative to the total endangium area of the aorta.
# Statistical analysis: All the experimental data is analyzed by SPSS13.0 Statistics software. The measurement data is expressed as x±s, and t test is applied to check the statistical significance. Where P<0.05, there is statistical significance.
# [2] = tested on: patients having cardio-cerebrovascular diseases resulting from arteriosclerosis; assay: Clinical trial in patients with cardio-cerebrovascular diseases resulting from arteriosclerosis; type: in vivo, human; conditions: for Total effective rate: excluding the withdrawing patients
# From the text: 300 patients (male:female 1:1, aged 35-78 years and 57.5 years on average, and having a course of disease of the shortest 1.5 years, the longest 7 years, and 4.6 years on average) diagnosed as having cardio-cerebrovascular diseases resulting from arteriosclerosis were selected at random as subjects for clinical observation. The patients were assigned to a group A, a group B, and a group C at random, each group having 100 patients.
# Group A: The patients were orally administered with NMN at a dosage of 10 mg/kg body weight before or after meals every day, and the diet was controlled as desired.
# Group B: The patients were orally administered with NMN at a dosage of 10 mg/kg body weight and with NR at a dosage of 2 mg/kg body weight before or after meals every day, and the diet was controlled as desired.
# Group C: The patients were intramusculary injected with NMN at a dosage of 10 mg/kg body weight and with NR at a dosage of 3 mg/kg body weight before or after meals every day, and the diet was controlled as desired.
# (1) Obvious effectiveness: The health is built up, the body is powerful, the blood lipid and blood pressure drop to normal levels, the palpitation, chest pain, chest tightness, headache, dizziness, decreased vision, decreased memory, insomnia and dreamful sleep, and other clinical symptoms are obvious alleviated.
# (2) Effectiveness: The health is built up, the blood lipid and blood pressure drop slightly, the palpitation, chest pain, chest tightness, headache, dizziness, decreased vision, decreased memory, insomnia and dreamful sleep, and other clinical symptoms are alleviated to some extent.
# (3) Ineffectiveness: There is no obvious improvement in the clinical symptoms.
# [3] = Group A: oral NMN 10 mg/kg every day, after 1 month
# [4] = Group A: oral NMN 10 mg/kg every day, after 1 month, 100 patients
smiles,measurement,setting,value
"NC(=O)c1ccc[n+]([C@@H]2O[C@H](COP(=O)([O-])O)[C@@H](O)[C@H]2O)c1 [NMN, β-nicotinamide mononucleotide]",Rate of lesion area of aorta (%),"[1]; high fat prevention group: high-fat diet, 10 mg NMN/kg body weight by gavage every day, end of week 10, x±s",13 ± 2%
same,Rate of lesion area of aorta (%),"[1]; high-dose: high-fat diet, 20 mg NMN/kg by gavage every day from week 7, end of week 10, x±s",18 ± 4%
same,Rate of lesion area of aorta (%),"[1]; low-dose: high-fat diet, 0.1 mg NMN/kg by gavage every day from week 7, end of week 10, x±s",58 ± 5%
same,Rate of lesion area of aorta (%),"[1]; medium-dose: high-fat diet, 10 mg NMN/kg by gavage every day from week 7, end of week 10, x±s",27 ± 3%
same,Time after administration at which patients with mild disease are cured,[2]; Group A: oral NMN 10 mg/kg body weight every day,7 days
same,Patients showing obvious effectiveness,[2]; [3],67 out of 100 patients
same,Patients showing effectiveness,[2]; [4],28 patients
same,Patients showing ineffectiveness,[2]; [4],4 patients
same,Total effective rate,[2]; [3],96%
same,Total effective rate,"[2]; Group A: oral NMN 10 mg/kg every day, after 1 month, listed as β-nicotinamide mononucleotide",up to 96%
